Measurements taken from patent publication EP2706118A1, “Method for the production of primary amines” (BASF SE, priority 2012, dated 2014).

Experiment: Solubility in the aqueous reaction mixture (remark in reaction conditions)
Type: physicochemical
Details: ~10 mM in 20 mM bicine-buffer (pH 8.8), used an emulsion
Protocol: • ~10 mM BDG-Aldehyde (very low solubility, used an emulsion) • 10 mM L-alanine • 20 mM bicine-buffer (pH 8.8) • Cv ω-TA (0.75 mg) • Total volume: 1 ml • c) The conversion of BDG-alcohol to BDG-amine by ADH + ω-TAs was confirmed by LC-MS (Figure 3 C) and thin layer chromatography (Figure 4, lanes 1-3).

solubility: very low
Structure (SMILES): CCCCOCCOCC=O [BDG-Aldehyde]
